“Also recorded” adds a separate entry of the source.
What was measured:
[1] = system: Cryptomeria japonica male flower buds and needle leaves; assay: Evaluation 1: immersion test of Cryptomeria japonica
Protocol: Evaluation 1 (Immersion Test of Cryptomeria japonica)
First, as agents to be used for an immersion test of Cryptomeria japonica, fatty acid derivative, fatty acid, polyoxyalkylene derivative, fats and oils and the like shown in Tables 1 and 2 were prepared. Next, many branches (length about 10 cm) of Cryptomeria japonica with 15 male flower buds on the tip were taken from the same tree of Cryptomeria japonica, and each group (five leaves for one group) was immersed in the agents (100 ml) of Tables 1 and 2. After immersing for about 1 min, the branches were taken out from the liquid and placed in a beaker. Browning changes were inspected visually on the male flower buds and needle leaves after one week. The test was performed using Cryptomeria japonica of August and November.

[2] = HLB of agent; assay type: physicochemical
[3] = branches of August, immersed about 1 min in agent, browning inspected visually after one week
[4] = branches of November, immersed about 1 min in agent, browning inspected visually after one week

For `CCCCCCCC/C=C\CCCCCCCC(=O)O` [Comparative Example 1, oleic acid], the “change of state of male flower bud (August)” value [1, 3] was “markedly browned”, the “change of state of male flower bud (November)” value [1, 4] was “no effect; also recorded: no change” and the “change of state of needle leaf (August)” value ([1]; in vivo) was “no change”. For the same molecule, the “change of state of needle leaf (November)” value ([1]; in vivo) was “no change”.

For `CCCCCCCC/C=C\CCCCCCCC(=O)[O-].[Na+]` [compound 2, sodium oleate], the “change of state of male flower bud (August)” value [1, 3] was “markedly browned”, the “change of state of needle leaf (August)” value [1, 3] was “no change” and the “change of state of male flower bud (November)” value [1, 4] was “no effect; also recorded: no change”. For the same molecule, the “change of state of needle leaf (November)” value [1, 4] was “no change”.

In the case of `CCCCC/C=C\C/C=C\CCCCCCCC(=O)O` [compound 3, linoleic acid], the “change of state of male flower bud (August)” value [1, 3] is reported as “markedly browned”, the “change of state of male flower bud (November)” value [1, 4] is reported as “no effect; also recorded: no change” and the “change of state of needle leaf (August)” value ([1]; in vivo) is reported as “no change”. The “change of state of needle leaf (November)” value ([1]; in vivo) was “no change”.

In the case of “methoxypolyoxyethylene oleic acid ester [Example 3]”, the “change of state of male flower bud (August)” value [1, 3] is reported as “browned”, the “change of state of male flower bud (November)” value [1, 4] is reported as “browned” and the “change of state of needle leaf (August)” value ([1]; in vivo) is reported as “no change”. The “change of state of needle leaf (November)” value ([1]; in vivo) was “no change”.

In the case of “polyoxyethylene dilinoleic acid ester [Example 4]”, the “change of state of male flower bud (August)” value [1, 3] is reported as “markedly browned”, the “change of state of male flower bud (November)” value [1, 4] is reported as “markedly browned” and the “change of state of needle leaf (August)” value ([1]; in vivo) is reported as “no change”. For the same molecule, the “change of state of needle leaf (November)” value ([1]; in vivo) was “no change”.

For “polyoxyethylene glycerol linoleic acid ester [Example 9]”, the “change of state of male flower bud (August)” value [1, 3] was “browned”, the “change of state of male flower bud (November)” value [1, 4] was “browned” and the “change of state of needle leaf (August)” value ([1]; in vivo) was “no change”. The “change of state of needle leaf (November)” value ([1]; in vivo) was “no change”.

For “polyoxyethylene linoleic acid ester [Example 2]”, the “change of state of male flower bud (August)” value [1, 3] was “markedly browned”, the “change of state of male flower bud (November)” value [1, 4] was “markedly browned” and the “change of state of needle leaf (August)” value ([1]; in vivo) was “no change”. The “change of state of needle leaf (November)” value ([1]; in vivo) was “no change” and the HLB [2] was “(HLB = 10.2)”.

With “polyoxyethylene linolenic acid ester [Comparative Example 5]” the “change of state of male flower bud (August)” value [1, 3] was “an effect was obtained; also recorded: markedly browned” and the “change of state of male flower bud (November)” value [1, 4] was “an effect was obtained; also recorded: markedly browned”.

With “polyoxyethylene methylglucoside oleic acid ester [Example 8]” the “change of state of male flower bud (August)” value [1, 3] was “browned”, the “change of state of male flower bud (November)” value [1, 4] was “browned” and the “change of state of needle leaf (August)” value ([1]; in vivo) was “no change”. The “change of state of needle leaf (November)” value ([1]; in vivo) was “no change”.

In the case of “polyoxyethylene oleic acid ester [Example 1]”, the “change of state of male flower bud (August)” value [1, 3] is reported as “browned”, the “change of state of needle leaf (August)” value [1, 3] is reported as “no change” and the “change of state of male flower bud (November)” value [1, 4] is reported as “browned”. The “change of state of needle leaf (November)” value [1, 4] was “no change”.

For “polyoxyethylene sorbitan oleic acid ester [Example 6]”, the “change of state of male flower bud (August)” value [1, 3] was “browned” and the “change of state of male flower bud (November)” value [1, 4] was “browned”.

For “polyoxyethylene sorbitan palmitic acid ester [compound 7]”, the “change of state of male flower bud (August)” value [1, 3] was “no effect; also recorded: no change” and the “change of state of male flower bud (November)” value [1, 4] was “no effect; also recorded: no change”.

With “polyoxyethylene sorbitol [Comparative Example 6]” the “change of state of male flower bud (August)” value [1, 3] was “not influenced; also recorded: no change”, the “change of state of needle leaf (August)” value [1, 3] was “not influenced; also recorded: no change” and the “change of state of male flower bud (November)” value [1, 4] was “not influenced; also recorded: no change”. The “change of state of needle leaf (November)” value [1, 4] was “not influenced; also recorded: no change”.

With “polyoxyethylene sorbitol linoleic acid ester [Example 7]” the “change of state of male flower bud (August)” value [1, 3] was “browned”, the “change of state of male flower bud (November)” value [1, 4] was “browned” and the “change of state of needle leaf (August)” value ([1]; in vivo) was “ho change”. For the same molecule, the “change of state of needle leaf (November)” value ([1]; in vivo) was “no change”.

For “polyoxyethylene stearic acid ester [compound 4]”, the “change of state of male flower bud (August)” value [1, 3] was “no effect; also recorded: no change” and the “change of state of male flower bud (November)” value [1, 4] was “no effect; also recorded: no change”.

For “polyoxyethylene-block-polyoxypropylene oleic acid ester [Example 5]”, the “change of state of male flower bud (August)” value [1, 3] was “browned”, the “change of state of male flower bud (November)” value [1, 4] was “browned” and the “change of state of needle leaf (August)” value ([1]; in vivo) was “no change”. The “change of state of needle leaf (November)” value ([1]; in vivo) was “no change”.

With sunflower oil [compound 9] the “change of state of needle leaf (August)” value ([1]; in vivo) was “no change” and the “change of state of needle leaf (November)” value ([1]; in vivo) was “no change”.

From patent publication US9282737B2, “Agent for preventing pollen dispersal” (NOF Corporation, priority 2008, dated 2016)
